Target: T1, GPR119 (Homo sapiens, UniProt Q8TDV5)
T1 construct: host or cells: CHO-K1 (CRE-bla reporter, doxycycline-induced)
T1 sequence (Q8TDV5 1-335): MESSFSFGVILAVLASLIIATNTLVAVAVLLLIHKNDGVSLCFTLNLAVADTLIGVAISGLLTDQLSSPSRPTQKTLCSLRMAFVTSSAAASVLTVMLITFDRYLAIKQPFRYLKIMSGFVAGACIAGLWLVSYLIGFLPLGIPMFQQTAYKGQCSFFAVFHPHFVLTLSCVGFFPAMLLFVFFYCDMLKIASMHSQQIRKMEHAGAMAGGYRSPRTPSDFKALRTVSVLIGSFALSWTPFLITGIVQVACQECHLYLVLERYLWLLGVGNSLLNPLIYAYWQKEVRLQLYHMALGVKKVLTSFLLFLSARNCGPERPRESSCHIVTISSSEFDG
Assay: Controlling Effect of GPR119 in CRE-bla CHO-K1 Cells (EC50)
Format: cell-based
Conditions: GPR119 CRE-bla CHO-K1 cell line, 5 hr incubation with compound, β-lactamase LiveBLAzer-FRET B/G readout; read-out: controlling effect against GPR119 in CRE-bla CHO-K1 cell line (EC50)
Outline: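 CHO-K1 cells carrying GPR119 and a CRE-β-lactamase reporter, induced with doxycycline for 16-20 h at 37° C, then exposed to compounds in 10-fold dilutions for 5 h. CCF4-AM FRET substrate added for 2 h at room temperature; blue/green fluorescence (409 ex, […]) read and EC50 derived.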

Question: How did the EC50 turn out when `CS(=O)(=O)c1ccc(-c2csc3c(OC4CCN(c5nc(CC6CC6)no5)CC4)ncnc23)c(F)c1` [Example 69, 7-(2-fluoro-4-methanesulfonyl-phenyl)-4-[1-(3-cyclopropylmethyl-[1,2,4]oxadiazol-5-yl)piperidin-4-yloxy]thieno[3,2-d]pyrimidine] was run?
Answer: < 100 nM

Question: `CS(=O)(=O)c1ccc(-c2csc3c(OC4CCN(c5nc(C6CCCC6)no5)CC4)ncnc23)c(F)c1` [Example 70, 7-(2-fluoro-4-methanesulfonyl-phenyl)-4-[1-(3-cyclopentyl-[1,2,4]oxadiazol-5-yl)piperidin-4-yloxy]thieno[3,2-d]pyrimidine] was tested. Which EC50 did it give?
Answer: < 100 nM

Question: `CC(C)(C)c1noc(N2CCC(Oc3ncnc4c(-c5ccc(S(C)(=O)=O)cc5F)csc34)CC2)n1` [Example 71, 7-(2-fluoro-4-methanesulfonyl-phenyl)-4-[1-(3-t-butyl-[1,2,4]oxadiazol-5-yl)piperidin-4-yloxy]thieno[3,2-d]pyrimidine] was tested. Which EC50 did it give?
Answer: < 100 nM

Question: With `CC(C)(C)OC(=O)N1CCC(Oc2ncnc3c(-c4ccc(S(C)(=O)=O)cc4F)csc23)CC1` [Example 72, tert-butyl 4-(7-(2-fluoro-4-methanesulfonyl-phenyl)thieno[3,2-d]pyrimidin-4-yloxy)piperidin-1-carboxylate] as the compound, how does the EC50 read?
Answer: < 100 nM

Question: For `CC(C)OC(=O)N1CCC(Oc2ncnc3c(-c4ccc(S(C)(=O)=O)cc4F)csc23)CC1` [Example 73, isopropyl 4-(7-(2-fluoro-4-methanesulfonyl-phenyl)thieno[3,2-d]pyrimidin-4-yloxy)piperidin-1-carboxylate], which EC50 is on record?
Answer: < 100 nM

Question: With `CN1CCC(Oc2ncnc3c(-c4ccc(S(C)(=O)=O)cc4F)csc23)CC1` [Example 74, 7-(2-fluoro-4-methanesulfonyl-phenyl)-4-[1-methylpiperidin-4-yloxy]thieno[3,2-d]pyrimidine] as the compound, how does the EC50 read?
Answer: > 1000 nM

Question: With `CS(=O)(=O)c1ccc(-c2csc3c(OC4CCN(C#N)CC4)ncnc23)c(F)c1` [Example 75, 4-(7-(2-fluoro-4-methanesulfonyl-phenyl)thieno[3,2-d]pyrimidin-4-yloxy)piperidin-1-carbonitrile] as the compound, how does the EC50 read?
Answer: 100 to 1000 nM

Question: Which EC50 does the source give for `CS(=O)(=O)c1ccc(-c2csc3c(OC4CCNCC4)ncnc23)c(F)c1` [Example 76, 7-(2-fluoro-4-methanesulfonyl-phenyl)-4-[piperidin-4-yloxy]thieno[3,2-d]pyrimidine] here?
Answer: > 1000 nM

Question: `CS(=O)(=O)c1ccc(-c2csc3c(OC4CCN(c5nc6ccccc6o5)CC4)ncnc23)c(F)c1` [Example 77, 2-(4-(7-(2-fluoro-4-methanesulfonyl-phenyl)thieno[3,2-d]pyrimidin-4-yloxy)piperidin-1-yl)benzo[d]oxazole] was tested. Which EC50 did it give?
Answer: < 100 nM

Question: How did the EC50 turn out when `CC(C)Cc1noc(N2CCC(Oc3ncnc4c(-c5ccc(S(C)(=O)=O)cc5F)csc34)CC2)n1` [Example 78, 7-(2-fluoro-4-methanesulfonyl-phenyl)-4-[1-(3-isobutyl-[1,2,4]oxadiazol-5-yl)piperidin-4-yloxy]thieno[3,2-d]pyrimidine] was run?
Answer: < 100 nM

Question: With `CS(=O)(=O)c1ccc(-c2csc3c(OC4CCN(c5nc(C6CCCCC6)no5)CC4)ncnc23)c(F)c1` [Example 79, 7-(2-fluoro-4-methanesulfonyl-phenyl)-4-[1-(3-cyclohexyl-[1,2,4]oxadiazol-5-yl)piperidin-4-yloxy]thieno[3,2-d]pyrimidine] as the compound, how does the EC50 read?
Answer: < 100 nM

Question: With `CS(=O)(=O)c1ccc(-c2csc3c(OC4CCN(c5nc(C6CC7CCC6C7)no5)CC4)ncnc23)c(F)c1` (stereo not shown) [Example 80, 7-(2-fluoro-4-methanesulfonyl-phenyl)-4-[1-(3-bicyclo[2,2,1]heptan-2-yl[1,2,4]oxadiazol-5-yl)piperidin-4-yloxy]thieno[3,2-d]pyrimidine] as the compound, how does the EC50 read?
Answer: < 100 nM

Question: `CCc1cnc(N2CCC(Oc3ncnc4c(-c5ccc(S(C)(=O)=O)cc5F)csc34)CC2)nc1` [Example 81, 4-[1-(5-ethylpyrimidin-2-yl)-piperidin-4-yloxy]-7-(2-fluoro-4-methanesulfonyl-phenyl)-thieno[3,2-d]pyrimidine] was tested. Which EC50 did it give?
Answer: < 100 nM

Question: How did the EC50 turn out when `CCCc1cnc(N2CCC(Oc3ncnc4c(-c5ccc(S(C)(=O)=O)cc5F)csc34)CC2)nc1` [Example 83, 7-(2-fluoro-4-methanesulfonyl-phenyl)-4-[1-(5-propyl-pyrimidin-2-yl)-piperidin-4-yloxy]-thieno[3,2-d]pyrimidine] was run?
Answer: < 100 nM

Question: How did the EC50 turn out when `CS(=O)(=O)c1ccc(-c2csc3c(OC4CCN(c5ncc(C6CC6)cn5)CC4)ncnc23)c(F)c1` [Example 84, 7-(2-fluoro-4-methanesulfonyl-phenyl)-4-[1-(5-cyclopropyl-pyrimidin-2-yl)-piperidin-4-yloxy]-thieno[3,2-d]pyrimidine] was run?
Answer: < 100 nM

Question: How did the EC50 turn out when `CS(=O)(=O)c1ccc(-c2csc3c(OC4CCN(c5ncccn5)CC4)ncnc23)c(F)c1` [Example 85, 7-(2-fluoro-4-methanesulfonyl-phenyl)-4-(1-pyrimidin-2-yl-piperidin-4-yloxy)-thieno[3,2-d]pyrimidine] was run?
Answer: < 100 nM

Question: `CC(C)c1ccc(-c2cnc(N3CCC(Oc4ncnc5c(-c6ccc(S(C)(=O)=O)cc6F)csc45)CC3)nc2)cc1` [Example 86, 7-(2-fluoro-4-methanesulfonyl-phenyl)-4-{1-[5-(4-isopropylphenyl)-pyrimidin-2-yl)-piperidin-4-yloxy]-thieno[3,2-d]pyrimidine] was tested. Which EC50 did it give?
Answer: < 100 nM

Question: For `CC(=O)N1CCC(Oc2ncnc3c(-c4ccc(S(C)(=O)=O)cc4F)csc23)CC1` [Example 87, 1-(4-(7-(2-fluoro-4-methanesulfonyl-phenyl)thieno[3,2-d]pyrimidin-4-yloxy)piperidin-1-yl)ethanone], which EC50 is on record?
Answer: > 1000 nM

Question: For `CC(C)(C)C(=O)N1CCC(Oc2ncnc3c(-c4ccc(S(C)(=O)=O)cc4F)csc23)CC1` [Example 88, 1-(4-(7-(2-fluoro-4-methanesulfonyl-phenyl)thieno[3,2-d]pyrimidin-4-yloxy)piperidin-1-yl)-2,2-dimethylpropan-1-one], which EC50 is on record?
Answer: < 100 nM

Question: With `CS(=O)(=O)c1ccc(-c2csc3c(OC4CCN(C(=O)c5ccccc5)CC4)ncnc23)c(F)c1` [Example 89, {4-[7-(2-fluoro-4-methanesulfonyl-phenyl)-thieno[3,2-d]pyrimidin-4-yloxy]-piperidin-1-yl}phenyl-methanone] as the compound, how does the EC50 read?
Answer: < 100 nM

Question: With `CS(=O)(=O)c1ccc(-c2csc3c(OC4CCN(C(=O)c5cccnc5)CC4)ncnc23)c(F)c1` [Example 90] as the compound, how does the EC50 read?
Answer: > 1000 nM

Question: For `CS(=O)(=O)c1ccc(-c2csc3c(OC4CCN(Cc5ccccc5)CC4)ncnc23)c(F)c1` [Example 91, 4-(1-benzylpiperidin-4-yloxy]-7-(2-fluoro-4-methanesulfonyl-phenyl)thieno[3,2-d]pyrimidine], which EC50 is on record?
Answer: < 100 nM

Question: `CC(C)c1csc(N2CCC(Oc3ncnc4c(-c5ccc(S(C)(=O)=O)cc5F)csc34)CC2)n1` [Example 93, 7-(2-fluoro-4-methanesulfonyl-phenyl)-4-[1-(4-isopropyl-thiazo-2-yl)piperidin-4-yloxy]-thieno[3,2-d]pyrimidine] was tested. Which EC50 did it give?
Answer: > 1000 nM

Question: How did the EC50 turn out when `CC(C)n1nnc(N2CCC(Oc3ncnc4c(-c5ccc(S(C)(=O)=O)cc5F)csc34)CC2)n1` [Example 94, 7-(2-fluoro-4-methanesulfonyl-phenyl)-4-(1-(2-isopropyl-2H-tetrazol-5-yl)piperidin-4-yloxy)thieno[3,2-d]pyrimidine] was run?
Answer: < 100 nM

Question: `CC(C)c1nc(N2CCC(Oc3ncnc4c(-c5ccc(S(C)(=O)=O)cc5F)csc34)CC2)no1` [Example 95, 7-(2-fluoro-4-methanesulfonyl-phenyl)-4[1-(5-isopropyl-[1,2,4]oxadiazol-3-yl)-piperidin-4-yloxy]-thieno[3,2d]pyrimidine] was tested. Which EC50 did it give?
Answer: < 100 nM

Question: How did the EC50 turn out when `COc1ccc(-c2csc3c(OC4CCN(c5nc(C(C)C)no5)CC4)ncnc23)c(Cl)c1` [Example 96, 5-(4-(7-(2-chloro-4-methoxyphenyl)thieno[3,2-d]pyrimidin-4-yloxy)piperidin-1-yl)-3-isopropyl-1,2,4-oxadiazole] was run?
Answer: < 100 nM

Question: `CC(C)c1noc(N2CCC(Oc3ncnc4c(-c5ccc(F)c(F)c5F)csc34)CC2)n1` [Example 97, 4-[1-(3-isopropyl-[1,2,4]oxadiazol-5-yl)-piperidin-4-yloxy]-7-(2,3,4-trifluoro-phenyl)-thieno[3,2-d]pyrimidine] was tested. Which EC50 did it give?
Answer: > 1000 nM

Question: With `COc1ccc(-c2csc3c(OC4CCN(c5nc(C(C)C)no5)CC4)ncnc23)cc1F` [Example 98, 7-(3-fluoro-4-methoxy-phenyl)-4-[1-(3-isopropyl-[1,2,4]oxadiazol-5-yl)-piperidin-4-yloxy]-thieno[3,2-d]pyrimidine] as the compound, how does the EC50 read?
Answer: > 1000 nM

Question: With `CC(C)c1noc(N2CCC(Oc3ncnc4c(-c5ccc(OC(F)(F)F)cc5)csc34)CC2)n1` [Example 99, 4-[1-(3-isopropyl-[1,2,4]oxadiazol-5-yl)-piperidin-4-yloxy]-7-(4-trifluoromethoxy-phenyl)-thieno[3,2-d]pyrimidine] as the compound, how does the EC50 read?
Answer: 100 to 1000 nM

Question: Which EC50 does the source give for `CC(C)c1noc(N2CCC(Oc3ncnc4c(-c5ccc(SC(F)(F)F)cc5)csc34)CC2)n1` [Example 100, 4-[1-(3-isopropyl-[1,2,4]oxadiazol-5-yl)-piperidin-4-yloxy]-7-(4-trifluoromethylsulfanyl-phenyl)-thieno[3,2-d]pyrimidine] here?
Answer: > 1000 nM

Question: With `CC(C)c1noc(N2CCC(Oc3ncnc4c(-c5ccc(S(=O)(=O)C(F)(F)F)cc5F)csc34)CC2)n1` [Example 101, 7-(2-fluoro-4-trifluoro(methanesulfonyl)phenyl)-4-[1-(3-isopropyl-[1,2,4]oxadiazol-5-yl)-piperidin-4-yloxy]-thieno[3,2-d]pyrimidine] as the compound, how does the EC50 read?
Answer: > 1000 nM
